Test results as given in BindingDB's records for doi:10.1124/jpet.302.1.359 (Bayer, 2002).
pKi: −log10 of the molar value.

How the values were obtained:
Cannabinoid receptor 1 = Cannabinoid receptor 1 (Homo sapiens, UniProt P21554)
Cannabinoid receptor 2 = Cannabinoid receptor 2 (Homo sapiens, UniProt P34972)
Chain of Cannabinoid receptor 2 (P34972 whole entry): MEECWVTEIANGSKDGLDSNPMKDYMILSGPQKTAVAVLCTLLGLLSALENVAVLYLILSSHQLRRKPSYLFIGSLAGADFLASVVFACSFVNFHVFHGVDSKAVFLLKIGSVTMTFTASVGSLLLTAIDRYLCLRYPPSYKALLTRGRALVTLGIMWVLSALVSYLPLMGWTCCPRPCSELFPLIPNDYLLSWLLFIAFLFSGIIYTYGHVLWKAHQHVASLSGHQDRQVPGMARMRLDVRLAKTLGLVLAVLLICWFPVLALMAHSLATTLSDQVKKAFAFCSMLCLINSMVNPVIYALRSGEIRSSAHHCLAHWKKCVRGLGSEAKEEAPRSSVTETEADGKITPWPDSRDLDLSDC

Chain of Cannabinoid receptor 1 (P21554 whole entry): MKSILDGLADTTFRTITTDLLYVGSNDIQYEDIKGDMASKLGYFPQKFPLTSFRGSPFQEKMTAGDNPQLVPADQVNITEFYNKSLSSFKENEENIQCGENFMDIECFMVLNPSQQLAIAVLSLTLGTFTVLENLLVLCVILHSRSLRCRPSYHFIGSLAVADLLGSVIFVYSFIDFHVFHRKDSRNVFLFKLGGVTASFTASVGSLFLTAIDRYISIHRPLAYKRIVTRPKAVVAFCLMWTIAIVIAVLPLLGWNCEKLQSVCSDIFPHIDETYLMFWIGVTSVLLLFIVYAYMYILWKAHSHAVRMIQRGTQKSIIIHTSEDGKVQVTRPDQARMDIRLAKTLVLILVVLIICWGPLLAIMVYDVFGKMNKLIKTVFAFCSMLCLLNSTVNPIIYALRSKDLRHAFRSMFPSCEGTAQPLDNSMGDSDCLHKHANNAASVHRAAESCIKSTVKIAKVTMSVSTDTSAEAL

SMILES | pKi (Cannabinoid receptor 1) | pKi (Cannabinoid receptor 2)
CCCCCCC(C)(C)c1cc(O)c2c(c1)OC(C)(C)[C@@H]1CC=C(CO)CC21 (stereo partly drawn) [(R)-3-(1,1-Dimethyl-heptyl)-9-hydroxymethyl-6,6-dimethyl-6a,7,10,10a-tetrahydro-6H-benzo[c]chromen-1-ol] | 9.39 | 
O=S(=O)(CCCC(F)(F)F)Oc1cccc(Oc2ccc(O)c3c2CC(CO)=C3)c1 [KN 38-7271] |  | 8.22
